Data published in ChEMBL document CHEMBL4190297, “Cafestol, a Bioactive Substance in Coffee, Has Antidiabetic Properties in KKAy Mice” (J Nat Prod, 2017).
Calls of active or inactive are those of the source. The calls are words filed in the database; no cut-off is given here.

How the values were obtained:
Mus musculus [1] = species: Mus musculus; assay: Antidiabetic activity in KK-Ay diabetic mouse model assessed as non-fasting blood glucose level at 1.1 mg added daily to normal chow pellets for 10 weeks (reference value: 26.2 +/- 1.2 mmol/L); assay type: functional
Mus musculus [2] = species: Mus musculus; assay: Effect on FABP4 mRNA expression levels in adipose tissue of KK-Ay diabetic mouse model at 0.4 to 1.1 mg added daily to normal chow pellets for 10 weeks by qRT-PCR analysis; assay type: functional, organism-based
Mus musculus [3] = species: Mus musculus; assay: Effect on Acaca mRNA expression levels in liver of KK-Ay diabetic mouse model at 0.4 to 1.1 mg added daily to normal chow pellets for 10 weeks by qRT-PCR analysis; assay type: functional, organism-based
Mus musculus [4] = species: Mus musculus; assay: Effect on FABP4 mRNA expression levels in liver of KK-Ay diabetic mouse model at 0.4 to 1.1 mg added daily to normal chow pellets for 10 weeks by qRT-PCR analysis; assay type: functional, organism-based
Mus musculus [5] = species: Mus musculus; assay: Effect on LXRalpha mRNA expression levels in muscle of KK-Ay diabetic mouse model at 0.4 to 1.1 mg added daily to normal chow pellets for 10 weeks by qRT-PCR analysis; assay type: functional, organism-based

C[C@@]12CCc3occc3[C@H]1CC[C@@]13C[C@H](CC[C@H]12)[C@@](O)(CO)C3
Activity (Mus musculus [1]): 19.7 mmol/L
Activity (Mus musculus [2]): inactive
Activity (Mus musculus [3]): inactive
Activity (Mus musculus [4]): inactive
Activity (Mus musculus [5]): inactive
